“And” between values parts separate entries of the source, which are not always exact repeats. Identical values can stand only once. Inconclusive results and toxic doses are left out. How the source made its calls: active means survival T/C of 150% or more; inactive means T/C below 125% in these data.
Test system: P388 leukemia ip, CD2F1 mice, survival T/C
Experiment: NCI In Vivo Anticancer Drug Screen. Data for tumor model P388 Leukemia (intraperitoneal) in CD2F1 (CDF1) mice
Conditions: endpoint: median survival time, higher = longer survival
Method in brief: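 Mice carrying the transplanted tumor received test compound or vehicle. Survival was recorded in each group, and the value is the treated-group measurement divided by that of the vehicle-treated control group.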

[1] = dose: 50.0 mg/kg/injection, schedule: Q01DX009 (ip), vehicle: saline with Tween-80
[2] = dose: 100.0 mg/kg/injection, schedule: Q01DX009 (ip), vehicle: saline with Tween-80
[3] = dose: 200.0 mg/kg/injection, schedule: Q01DX009 (ip), vehicle: saline with Tween-80
[4] = dose: 25.0 mg/kg/injection, schedule: Q01DX009 (ip), vehicle: Klucel (hydroxypropylcellulose) (HPC)
[5] = dose: 50.0 mg/kg/injection, schedule: Q01DX009 (ip), vehicle: Klucel (hydroxypropylcellulose) (HPC)
[6] = dose: 100.0 mg/kg/injection, schedule: Q01DX009 (ip), vehicle: Klucel (hydroxypropylcellulose) (HPC)
[7] = dose: 200.0 mg/kg/injection, schedule: Q01DX009 (ip), vehicle: Klucel (hydroxypropylcellulose) (HPC)

Measured: T/C

O=NN(c1ccc(Br)cc1)c1ccccn1
inactive: dose: 25.0 mg/kg/injection, schedule: Q01DX009 (ip), vehicle: other 102 % of control | dose: 50.0 mg/kg/injection, schedule: Q01DX009 (ip), vehicle: other 109 % of control | [1] 100 % of control | dose: 100.0 mg/kg/injection, schedule: Q01DX009 (ip), vehicle: other 109 % of control | [2] 100 % of control | dose: 200.0 mg/kg/injection, schedule: Q01DX009 (ip), vehicle: other 114 % of control | [3] 97 % of control | dose: 400.0 mg/kg/injection, schedule: Q01DX009 (ip), vehicle: other 112 % of control

O=C(Nc1ccc(Br)c2c(NC(=O)c3ccccc3)ccc(Br)c12)c1ccccc1
inactive: dose: 1.5 mg/kg/injection, schedule: Q01DX009 (ip), vehicle: saline with Tween-80 100 % of control | dose: 3.0 mg/kg/injection, schedule: Q01DX009 (ip), vehicle: saline with Tween-80 90 % of control | dose: 6.0 mg/kg/injection, schedule: Q01DX009 (ip), vehicle: saline with Tween-80 90 % of control

CCCCCCC(=O)Oc1ccc[nH]c1=O
inactive: dose: 25.0 mg/kg/injection, schedule: Q01DX009 (ip), vehicle: distilled water + Tween-80 104 % of control | dose: 50.0 mg/kg/injection, schedule: Q01DX009 (ip), vehicle: distilled water + Tween-80 100 % of control | dose: 100.0 mg/kg/injection, schedule: Q01DX009 (ip), vehicle: distilled water + Tween-80 97 % of control | dose: 200.0 mg/kg/injection, schedule: Q01DX009 (ip), vehicle: distilled water + Tween-80 100 % of control | dose: 400.0 mg/kg/injection, schedule: Q01DX009 (ip), vehicle: distilled water + Tween-80 100 % of control

CCN(CC)CC(C)(C)C(=O)/C=C/c1ccc(/C=C/C(=O)C(C)(C)CN(CC)CC)cc1
inactive: dose: 7.5 mg/kg/injection, schedule: Q01DX005 (ip), vehicle: saline 115 % of control and 124 % of control

Cc1c(CCl)cc([N+](=O)[O-])cc1CCl
inactive: dose: 6.25 mg/kg/injection, schedule: Q01DX009 (ip), vehicle: Klucel (hydroxypropylcellulose) (HPC) 99 % of control | dose: 12.5 mg/kg/injection, schedule: Q01DX009 (ip), vehicle: Klucel (hydroxypropylcellulose) (HPC) 112 % of control and 114 % of control (2×) | [4] 116 % of control and 117 % of control and 120 % of control | [5] 114 % of control and 117 % of control

CC(C)=Nc1c(C(N)=O)c(-c2ccccc2)c(-c2ccccc2)n1-c1ccccc1
inactive: [1] 107 % of control | [2] 107 % of control | [3] 98 % of control

O/N=C\C[n+]1cc2ccccc2cc1/C=N\O
inactive: dose: 50.0 mg/kg/injection, schedule: Q01DX005 (ip), vehicle: saline with Tween-80 112 % of control | dose: 100.0 mg/kg/injection, schedule: Q01DX005 (ip), vehicle: saline with Tween-80 109 % of control

ClCCN(CCN(CCCl)c1ccc2ccccc2c1)c1ccc2ccccc2c1
inactive: [5] 109 % of control | [6] 112 % of control | [7] 107 % of control

O=C1NC(=O)C(=O)N1
inactive: dose: 100.0 mg/kg/injection, schedule: Q04DX003 (ip), vehicle: saline 100 % of control | dose: 400.0 mg/kg/injection, schedule: Q04DX003 (ip), vehicle: saline 100 % of control

O=C(O)COC1CC(=O)N2c3ccccc3C34CCN5C(=O)C(=O)C(CC53)C1C24 (stereo not given)
inactive: dose: 60.0 mg/kg/injection, schedule: Q01DX005 (ip), vehicle: saline with Tween-80 96 % of control | dose: 120.0 mg/kg/injection, schedule: Q01DX005 (ip), vehicle: saline with Tween-80 95 % of control | dose: 240.0 mg/kg/injection, schedule: Q01DX005 (ip), vehicle: saline with Tween-80 88 % of control

N#CSCc1cc(Cl)c(Cl)cc1Cl
inactive: dose: 25.0 mg/kg/injection, schedule: Q04DX002 (ip), vehicle: saline with Tween-80 106 % of control | dose: 50.0 mg/kg/injection, schedule: Q04DX002 (ip), vehicle: saline with Tween-80 106 % of control | dose: 100.0 mg/kg/injection, schedule: Q04DX002 (ip), vehicle: Klucel (hydroxypropylcellulose) (HPC) 107 % of control | dose: 100.0 mg/kg/injection, schedule: Q04DX002 (ip), vehicle: saline with Tween-80 100 % of control

COc1cccc(CN2CCN(N=O)CC2)c1
inactive: [4] 105 % of control | [5] 97 % of control | [6] 95 % of control | [7] 105 % of control

FC1OC1(F)C12CC3CC(CC(C3)C1)C2 (stereo not given)
inactive: [5] 106 % of control | [6] 106 % of control | [7] 105 % of control

From PubChem BioAssay AID330 (DTP/NCI, 2004)
